Measurements published in PubChem BioAssay (NCI).
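Compound exposure: 48 hours, 5 concentrations, 96-well plates. The concentration for full growth arrest is given as TGI.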

Assays:
Test in all cases: NCI tumour cell line growth inhibition, 48 h
[1] = system: CAKI-1 renal
[2] = system: HOP-62 NSCLC
[3] = system: HCT-15 colon
[4] = system: NCI/ADR-RES ovarian
[5] = system: MDA-N
[6] = system: SK-MEL-5 melanoma
[7] = system: NCI-H23 lung
[8] = system: BT-549 breast
[9] = system: A498 renal
[10] = system: SK-MEL-2 melanoma
[11] = system: A549 NSCLC
[12] = system: IGROV1 ovarian
[13] = system: SN12C renal
[14] = system: HL-60(TB) leukemia
[15] = system: MDA-MB-435
[16] = system: PC-3 prostate
[17] = system: ACHN renal
[18] = system: M14 melanoma
[19] = system: COLO 205 colon
[20] = system: K-562 leukemia
[21] = system: SW-620 colon
[22] = system: NCI-H460 lung
[23] = system: RXF 393 renal
[24] = system: NCI-H226 lung
[25] = system: SK-MEL-28 melanoma
[26] = system: MDA-MB-231 breast
[27] = system: HCC-2998 colon
[28] = system: MCF7 breast
[29] = system: HCT-116 colon
[30] = system: SF-295 CNS
[31] = system: HT29 colon
[32] = system: OVCAR-8 ovarian
[33] = system: SNB-19 CNS
[34] = system: CCRF-CEM leukemia
[35] = system: HOP-92 NSCLC
[36] = system: MALME-3M melanoma
[37] = system: SF-539 CNS
[38] = system: DU-145 prostate
[39] = system: SR leukemia
[40] = system: UACC-257 melanoma
[41] = system: LOX IMVI melanoma
[42] = system: KM12 colon
[43] = system: SF-268 CNS
[44] = system: MOLT-4 leukemia
[45] = system: T-47D breast
[46] = system: RPMI-8226 leukemia
[47] = system: OVCAR-4 ovarian
[48] = system: U251 CNS
[49] = system: 786-0 renal
[50] = system: HS 578T breast
[51] = system: SNB-75 CNS
[52] = system: TK-10 renal
[53] = system: SK-OV-3 ovarian
[54] = system: EKVX NSCLC
[55] = system: UO-31 renal
[56] = system: OVCAR-3 ovarian
[57] = system: UACC-62 melanoma
[58] = system: OVCAR-5 ovarian
[59] = system: NCI-H522 lung

Cc1ccc(-c2csc(=Nc3ccccc3)n2NC(=O)c2ccncc2)cc1
TGI [1]: > 100 µM
TGI [2]: > 100 µM
TGI [3]: > 100 µM
TGI [4]: > 90.5 µM
TGI [5]: > 100 µM
TGI [6]: 34.8 µM
TGI [7]: > 76.1 µM
TGI [8]: > 91.8 µM
TGI [9]: > 100 µM
TGI [10]: 96.1 µM
TGI [11]: > 100 µM
TGI [12]: > 100 µM
TGI [13]: > 100 µM
TGI [14]: > 69.2 µM
TGI [15]: > 100 µM
TGI [16]: > 100 µM
TGI [17]: > 100 µM
TGI [18]: > 100 µM
TGI [19]: 82.5 µM
TGI [20]: 36.1 µM
TGI [21]: > 100 µM
TGI [22]: > 100 µM
TGI [23]: > 100 µM
TGI [24]: > 75.2 µM
TGI [25]: > 100 µM
TGI [26]: > 100 µM
TGI [27]: > 100 µM
TGI [28]: > 100 µM
TGI [29]: > 100 µM
TGI [30]: 74.9 µM
TGI [31]: 60 µM
TGI [32]: > 90.9 µM
TGI [33]: > 100 µM
TGI [34]: > 67.5 µM
TGI [35]: > 100 µM
TGI [36]: > 100 µM
TGI [37]: > 100 µM
TGI [38]: > 100 µM
TGI [39]: > 100 µM
TGI [40]: > 100 µM
TGI [41]: > 100 µM
TGI [42]: > 100 µM
TGI [43]: > 100 µM
TGI [44]: > 76.8 µM
TGI [45]: 58.7 µM
TGI [46]: 75.8 µM
TGI [47]: > 100 µM
TGI [48]: > 31.6 µM
TGI [49]: > 100 µM
TGI [50]: > 100 µM
TGI [51]: > 88.2 µM
TGI [52]: > 100 µM
TGI [53]: > 100 µM
TGI [54]: > 100 µM
TGI [55]: > 100 µM
TGI [56]: > 100 µM
TGI [57]: 70.6 µM
TGI [58]: > 100 µM

NC(N)=Nc1ccc(CC(N)NCC(=O)O)cc1 (configuration not stated)
TGI [1]: > 25 µM
TGI [2]: > 25 µM
TGI [3]: > 25 µM
TGI [4]: > 25 µM
TGI [5]: > 25 µM
TGI [6]: > 25 µM
TGI [7]: > 25 µM
TGI [8]: > 25 µM
TGI [9]: > 25 µM
TGI [10]: > 25 µM
TGI [11]: > 25 µM
TGI [12]: > 25 µM
TGI [13]: > 25 µM
TGI [14]: > 25 µM
TGI [15]: > 25 µM
TGI [16]: > 25 µM
TGI [17]: > 25 µM
TGI [18]: > 25 µM
TGI [19]: > 25 µM
TGI [20]: > 25 µM
TGI [21]: > 25 µM
TGI [23]: > 25 µM
TGI [24]: > 25 µM
TGI [25]: > 25 µM
TGI [26]: > 25 µM
TGI [27]: > 25 µM
TGI [28]: > 25 µM
TGI [29]: > 25 µM
TGI [30]: > 25 µM
TGI [31]: > 25 µM
TGI [32]: > 25 µM
TGI [34]: > 25 µM
TGI [35]: > 25 µM
TGI [36]: > 25 µM
TGI [38]: > 25 µM
TGI [39]: > 25 µM
TGI [40]: > 25 µM
TGI [41]: > 25 µM
TGI [42]: > 25 µM
TGI [43]: > 25 µM
TGI [44]: > 25 µM
TGI [59]: > 25 µM
TGI [45]: > 25 µM
TGI [46]: > 25 µM
TGI [47]: > 25 µM
TGI [48]: > 25 µM
TGI [49]: > 25 µM
TGI [50]: > 25 µM
TGI [51]: > 25 µM
TGI [52]: > 25 µM
TGI [53]: > 25 µM
TGI [54]: > 25 µM
TGI [55]: > 25 µM
TGI [56]: > 25 µM
TGI [57]: > 25 µM
TGI [58]: > 25 µM

CN(C)CCNS(=O)(=O)c1ccc(N)cc1
TGI [1]: > 100 µM
TGI [2]: 32.4 µM
TGI [3]: > 100 µM
TGI [4]: > 100 µM
TGI [5]: > 100 µM
TGI [6]: > 100 µM
TGI [7]: > 100 µM
TGI [8]: > 100 µM
TGI [9]: > 100 µM
TGI [10]: 31.9 µM
TGI [11]: > 100 µM
TGI [12]: > 100 µM
TGI [13]: > 100 µM
TGI [14]: > 100 µM
TGI [15]: > 100 µM
TGI [16]: 34 µM
TGI [17]: > 100 µM
TGI [18]: > 100 µM
TGI [19]: > 100 µM
TGI [20]: > 100 µM
TGI [21]: > 100 µM
TGI [22]: > 100 µM
TGI [23]: > 100 µM
TGI [24]: > 100 µM
TGI [25]: > 100 µM
TGI [26]: > 100 µM
TGI [27]: > 100 µM
TGI [28]: > 100 µM
TGI [29]: > 100 µM
TGI [30]: > 100 µM
TGI [31]: > 100 µM
TGI [32]: > 100 µM
TGI [33]: > 100 µM
TGI [34]: > 100 µM
TGI [35]: > 100 µM
TGI [36]: > 100 µM
TGI [37]: > 100 µM
TGI [38]: > 100 µM
TGI [39]: > 100 µM
TGI [40]: > 100 µM
TGI [42]: > 100 µM
TGI [43]: > 100 µM
TGI [44]: > 100 µM
TGI [59]: > 100 µM
TGI [45]: > 100 µM
TGI [46]: > 100 µM
TGI [47]: > 100 µM
TGI [48]: > 100 µM
TGI [49]: > 100 µM
TGI [50]: > 100 µM
TGI [51]: > 100 µM
TGI [52]: > 100 µM
TGI [53]: > 100 µM
TGI [54]: > 100 µM
TGI [55]: > 100 µM
TGI [56]: 31 µM
TGI [57]: > 100 µM
TGI [58]: > 100 µM

S=C(N/N=C(/c1ccccc1)c1ccccn1)N(Cc1ccccn1)Cc1ccccn1
TGI [1]: 1.42 µM
TGI [2]: 3.17 µM
TGI [4]: 1.44 µM
TGI [5]: 7.62 µM
TGI [6]: 3.12 µM
TGI [7]: 1.57 µM
TGI [8]: 1.51 µM
TGI [10]: 3.04 µM
TGI [11]: 2.01 µM
TGI [12]: 2.03 µM
TGI [13]: 3.47 µM
TGI [14]: > 100 µM
TGI [15]: 3.56 µM
TGI [16]: 1.78 µM
TGI [17]: 0.74 µM
TGI [18]: 2.97 µM
TGI [19]: 2.02 µM
TGI [20]: > 100 µM
TGI [21]: 7.72 µM
TGI [22]: 4.7 µM
TGI [23]: 2.74 µM
TGI [24]: 0.433 µM
TGI [25]: 5.45 µM
TGI [26]: 2.72 µM
TGI [28]: 5.02 µM
TGI [29]: 1.59 µM
TGI [30]: 1.82 µM
TGI [31]: 2.09 µM
TGI [32]: 1.13 µM
TGI [33]: 2.26 µM
TGI [34]: > 100 µM
TGI [35]: 1.45 µM
TGI [36]: 2.45 µM
TGI [37]: 3.45 µM
TGI [38]: 4.42 µM
TGI [39]: 43.5 µM
TGI [40]: 2.42 µM
TGI [41]: 1.74 µM
TGI [42]: 2.31 µM
TGI [43]: 4.84 µM
TGI [44]: 16.1 µM
TGI [59]: 4.5 µM
TGI [45]: 2.82 µM
TGI [46]: 3.38 µM
TGI [47]: 1.73 µM
TGI [49]: 2.04 µM
TGI [50]: > 29.8 µM
TGI [51]: 2.24 µM
TGI [52]: 1.58 µM
TGI [53]: 1.66 µM
TGI [54]: 1.7 µM
TGI [55]: 1.65 µM
TGI [56]: 1.71 µM
TGI [57]: 2.21 µM
TGI [58]: 3.37 µM
